Assay in all cases: biochemical
Common to all, as to parameters: Eurofins KinaseProfiler full panel at Km ATP, residual kinase activity (%) relative to DMSO

Test [1] has as its target T1, Abl(h) (Homo sapiens, UniProt P00519).
T1 construct: gene ABL1
In outline: (§1)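 Radiometric kinase activity assays were run with ATP at Km and compounds at 10 µM, and remaining activity (%) was reported. A separate competitive binding screen measured DNA-tagged kinase displaced from immobilized active-site ligands by qPCR, giving percent kinase still bound at 10 µM compound in DMSO.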

Test [2] concerns the target T2, Axl(h) (Homo sapiens, UniProt P30530).
T2 sequence (P30530 1-894): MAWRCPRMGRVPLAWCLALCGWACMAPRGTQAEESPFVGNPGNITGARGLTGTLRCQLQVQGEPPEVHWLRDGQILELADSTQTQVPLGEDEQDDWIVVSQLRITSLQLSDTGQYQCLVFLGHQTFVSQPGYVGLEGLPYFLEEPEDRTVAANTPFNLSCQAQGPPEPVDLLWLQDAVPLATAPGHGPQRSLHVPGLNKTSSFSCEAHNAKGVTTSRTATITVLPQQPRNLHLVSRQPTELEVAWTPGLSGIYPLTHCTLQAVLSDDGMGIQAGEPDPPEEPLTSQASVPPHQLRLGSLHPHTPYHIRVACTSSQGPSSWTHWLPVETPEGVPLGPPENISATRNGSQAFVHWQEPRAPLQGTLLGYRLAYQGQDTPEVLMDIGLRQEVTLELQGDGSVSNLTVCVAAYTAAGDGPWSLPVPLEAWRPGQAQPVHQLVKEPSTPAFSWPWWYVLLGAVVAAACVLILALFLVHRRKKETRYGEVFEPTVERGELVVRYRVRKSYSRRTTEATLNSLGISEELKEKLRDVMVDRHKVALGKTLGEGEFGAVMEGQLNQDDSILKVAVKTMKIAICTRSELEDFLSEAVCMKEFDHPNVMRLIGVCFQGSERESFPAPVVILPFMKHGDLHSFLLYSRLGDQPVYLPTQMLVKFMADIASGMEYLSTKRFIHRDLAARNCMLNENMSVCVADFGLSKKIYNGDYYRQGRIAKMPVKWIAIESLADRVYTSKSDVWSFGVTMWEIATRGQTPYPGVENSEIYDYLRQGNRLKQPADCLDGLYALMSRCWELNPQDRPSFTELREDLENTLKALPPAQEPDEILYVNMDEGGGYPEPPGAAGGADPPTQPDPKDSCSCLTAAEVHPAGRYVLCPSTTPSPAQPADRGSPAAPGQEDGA
In outline:
as §1

Test [3] addresses CDK18/cyclinY(h) (Homo sapiens, UniProt Q07002). In short, it runs like this: as §1
Test [4] deals with T3, MAPKAP-K3(h) (Homo sapiens, UniProt Q16644).
T3 construct: gene MAPKAPK3
In short, it runs like this:
as §1

The target in test [5] is T4, PhKγ2(h) (Homo sapiens, UniProt P15735).
T4 construct: gene PHKG2
T4 sequence (P15735 1-406): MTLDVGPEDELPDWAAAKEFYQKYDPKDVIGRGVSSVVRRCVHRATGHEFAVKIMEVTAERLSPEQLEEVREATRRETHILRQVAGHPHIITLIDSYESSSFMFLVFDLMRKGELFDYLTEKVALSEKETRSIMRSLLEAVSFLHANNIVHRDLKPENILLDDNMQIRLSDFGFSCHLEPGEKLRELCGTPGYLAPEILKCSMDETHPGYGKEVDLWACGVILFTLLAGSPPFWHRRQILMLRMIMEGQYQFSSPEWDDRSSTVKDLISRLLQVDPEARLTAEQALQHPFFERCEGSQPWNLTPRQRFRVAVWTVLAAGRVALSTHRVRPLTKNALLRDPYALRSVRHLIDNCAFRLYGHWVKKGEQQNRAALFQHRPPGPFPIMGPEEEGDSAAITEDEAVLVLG
In outline:
as §1

The target in test [6] is T5, PKR(h) (Homo sapiens, UniProt P19525).
T5 construct: gene EIF2AK2
In outline: as §1

Test [7] concerns the target T6, BIKe(h) (Homo sapiens, UniProt Q9NSY1).
T6 construct: gene BMP2K
In short, it runs like this:
as §1

The target in test [8] is Lyn(m) (Mus musculus, UniProt P25911). In short, it runs like this:
as §1

The target in test [9] is T7, CaMKIδ(h) (Homo sapiens, UniProt Q8IU85).
T7 construct: gene CAMK1D
In short, it runs like this:
as §1

For test [10], the target named is Fyn(h) (Homo sapiens, UniProt P06241). In short, it runs like this:
as §1

[11] abbreviates: read-out: Residual activity (%) 5at.
The mark [12] stands for this setting: read-out: Residual activity (%) 5ay.
[13] abbreviates: read-out: Residual activity (%) 5as.
[14] abbreviates: read-out: Residual activity (%) Spautin-1 5aa.

Consider four compounds from article PMC7827406, “Structure–Activity Relationship (SAR) Study of Spautin-1 to Entail the Discovery of Novel NEK4 Inhibitors” (International Journal of Molecular Sciences, 2021).

Where two headings read alike, the source gives them in different places.

T3 sequence (Q16644 whole entry): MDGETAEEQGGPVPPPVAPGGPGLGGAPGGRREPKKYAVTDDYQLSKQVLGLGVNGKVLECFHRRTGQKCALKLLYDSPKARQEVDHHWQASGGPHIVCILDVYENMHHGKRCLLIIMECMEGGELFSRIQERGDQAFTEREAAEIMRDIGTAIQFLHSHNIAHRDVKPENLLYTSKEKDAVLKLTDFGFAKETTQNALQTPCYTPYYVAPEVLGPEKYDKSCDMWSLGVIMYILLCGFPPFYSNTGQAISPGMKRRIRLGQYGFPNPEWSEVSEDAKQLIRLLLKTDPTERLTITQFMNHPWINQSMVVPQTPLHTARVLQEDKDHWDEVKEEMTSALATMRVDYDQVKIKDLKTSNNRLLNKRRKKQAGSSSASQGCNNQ
T1 sequence (P00519 whole entry): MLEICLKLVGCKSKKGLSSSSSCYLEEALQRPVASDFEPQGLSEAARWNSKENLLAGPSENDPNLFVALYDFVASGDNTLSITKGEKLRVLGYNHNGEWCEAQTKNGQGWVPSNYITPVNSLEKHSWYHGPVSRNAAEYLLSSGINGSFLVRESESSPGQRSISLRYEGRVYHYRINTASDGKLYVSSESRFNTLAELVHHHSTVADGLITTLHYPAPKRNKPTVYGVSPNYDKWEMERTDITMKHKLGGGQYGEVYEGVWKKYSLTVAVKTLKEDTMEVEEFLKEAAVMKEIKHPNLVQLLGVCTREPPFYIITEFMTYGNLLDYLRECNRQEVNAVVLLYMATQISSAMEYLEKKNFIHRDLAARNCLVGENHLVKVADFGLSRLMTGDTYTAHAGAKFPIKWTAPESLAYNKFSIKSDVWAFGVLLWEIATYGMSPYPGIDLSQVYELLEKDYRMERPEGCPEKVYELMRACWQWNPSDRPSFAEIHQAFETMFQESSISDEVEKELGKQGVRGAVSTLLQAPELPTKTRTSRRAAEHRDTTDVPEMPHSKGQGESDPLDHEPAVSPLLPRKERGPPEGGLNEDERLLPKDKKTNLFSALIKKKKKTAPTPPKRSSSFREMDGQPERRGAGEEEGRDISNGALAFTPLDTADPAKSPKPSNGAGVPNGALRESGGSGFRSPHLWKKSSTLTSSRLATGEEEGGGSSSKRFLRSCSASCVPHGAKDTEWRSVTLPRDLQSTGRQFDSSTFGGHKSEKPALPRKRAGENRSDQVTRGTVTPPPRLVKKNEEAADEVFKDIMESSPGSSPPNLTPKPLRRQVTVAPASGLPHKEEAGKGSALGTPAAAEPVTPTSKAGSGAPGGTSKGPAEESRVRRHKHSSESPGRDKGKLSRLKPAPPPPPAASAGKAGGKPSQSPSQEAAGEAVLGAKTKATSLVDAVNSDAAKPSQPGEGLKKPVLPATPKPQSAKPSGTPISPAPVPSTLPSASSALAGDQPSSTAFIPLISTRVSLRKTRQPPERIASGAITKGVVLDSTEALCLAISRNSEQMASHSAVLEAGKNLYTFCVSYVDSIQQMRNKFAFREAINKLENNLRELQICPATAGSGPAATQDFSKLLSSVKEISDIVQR
Chain of Fyn(h) (P06241 whole entry): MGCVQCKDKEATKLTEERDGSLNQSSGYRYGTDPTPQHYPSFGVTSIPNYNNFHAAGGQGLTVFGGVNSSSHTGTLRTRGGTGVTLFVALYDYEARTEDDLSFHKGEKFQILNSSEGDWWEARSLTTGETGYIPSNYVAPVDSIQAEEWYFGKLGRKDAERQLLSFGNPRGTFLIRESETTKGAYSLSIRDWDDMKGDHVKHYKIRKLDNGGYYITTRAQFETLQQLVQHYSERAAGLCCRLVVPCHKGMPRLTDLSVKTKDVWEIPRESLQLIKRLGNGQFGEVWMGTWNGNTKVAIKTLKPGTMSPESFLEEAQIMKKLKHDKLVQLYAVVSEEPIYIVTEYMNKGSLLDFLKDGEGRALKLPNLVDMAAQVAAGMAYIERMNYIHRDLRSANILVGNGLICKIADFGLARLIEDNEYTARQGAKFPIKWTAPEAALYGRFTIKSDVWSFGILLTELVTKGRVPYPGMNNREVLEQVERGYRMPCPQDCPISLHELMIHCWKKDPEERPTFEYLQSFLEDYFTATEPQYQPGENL
Chain of Lyn(m) (P25911 whole entry): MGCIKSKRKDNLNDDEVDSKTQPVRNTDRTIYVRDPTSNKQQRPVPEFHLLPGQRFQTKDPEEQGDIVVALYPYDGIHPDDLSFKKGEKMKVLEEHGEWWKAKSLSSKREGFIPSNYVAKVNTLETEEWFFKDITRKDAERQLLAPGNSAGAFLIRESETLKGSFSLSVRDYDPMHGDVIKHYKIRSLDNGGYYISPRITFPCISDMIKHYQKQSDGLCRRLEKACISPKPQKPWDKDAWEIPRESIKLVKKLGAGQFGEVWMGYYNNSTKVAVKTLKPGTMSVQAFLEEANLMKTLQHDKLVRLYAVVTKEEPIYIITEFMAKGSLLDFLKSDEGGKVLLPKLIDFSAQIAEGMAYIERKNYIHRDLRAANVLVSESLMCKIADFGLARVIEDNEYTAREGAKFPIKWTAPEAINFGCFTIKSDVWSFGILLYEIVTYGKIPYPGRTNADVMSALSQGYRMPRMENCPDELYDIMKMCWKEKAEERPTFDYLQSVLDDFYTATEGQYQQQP
T7 sequence (Q8IU85 whole entry): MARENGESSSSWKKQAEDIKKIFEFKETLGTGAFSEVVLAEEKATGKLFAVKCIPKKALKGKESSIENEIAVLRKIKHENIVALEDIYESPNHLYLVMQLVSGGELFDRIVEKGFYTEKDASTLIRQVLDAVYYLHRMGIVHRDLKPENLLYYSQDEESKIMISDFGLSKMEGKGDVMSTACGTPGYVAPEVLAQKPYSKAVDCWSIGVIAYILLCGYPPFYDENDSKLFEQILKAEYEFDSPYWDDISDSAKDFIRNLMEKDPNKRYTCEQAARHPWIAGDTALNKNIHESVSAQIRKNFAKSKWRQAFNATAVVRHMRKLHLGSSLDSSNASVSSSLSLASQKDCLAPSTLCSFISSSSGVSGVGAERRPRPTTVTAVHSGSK
T5 sequence (P19525 whole entry): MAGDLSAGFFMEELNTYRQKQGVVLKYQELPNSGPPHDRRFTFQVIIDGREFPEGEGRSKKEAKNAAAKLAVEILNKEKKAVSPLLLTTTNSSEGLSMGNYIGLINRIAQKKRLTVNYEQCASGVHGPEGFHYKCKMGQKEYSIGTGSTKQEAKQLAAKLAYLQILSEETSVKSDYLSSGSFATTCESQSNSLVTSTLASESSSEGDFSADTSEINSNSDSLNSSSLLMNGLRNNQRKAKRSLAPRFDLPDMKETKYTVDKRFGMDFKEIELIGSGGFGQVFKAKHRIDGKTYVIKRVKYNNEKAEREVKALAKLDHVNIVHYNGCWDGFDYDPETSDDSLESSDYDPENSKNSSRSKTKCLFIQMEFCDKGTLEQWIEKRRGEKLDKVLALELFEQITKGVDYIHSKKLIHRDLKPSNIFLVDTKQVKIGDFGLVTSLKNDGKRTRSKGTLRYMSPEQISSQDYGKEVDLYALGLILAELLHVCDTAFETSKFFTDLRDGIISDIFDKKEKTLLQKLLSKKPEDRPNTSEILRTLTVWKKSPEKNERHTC
T6 sequence (Q9NSY1 whole entry): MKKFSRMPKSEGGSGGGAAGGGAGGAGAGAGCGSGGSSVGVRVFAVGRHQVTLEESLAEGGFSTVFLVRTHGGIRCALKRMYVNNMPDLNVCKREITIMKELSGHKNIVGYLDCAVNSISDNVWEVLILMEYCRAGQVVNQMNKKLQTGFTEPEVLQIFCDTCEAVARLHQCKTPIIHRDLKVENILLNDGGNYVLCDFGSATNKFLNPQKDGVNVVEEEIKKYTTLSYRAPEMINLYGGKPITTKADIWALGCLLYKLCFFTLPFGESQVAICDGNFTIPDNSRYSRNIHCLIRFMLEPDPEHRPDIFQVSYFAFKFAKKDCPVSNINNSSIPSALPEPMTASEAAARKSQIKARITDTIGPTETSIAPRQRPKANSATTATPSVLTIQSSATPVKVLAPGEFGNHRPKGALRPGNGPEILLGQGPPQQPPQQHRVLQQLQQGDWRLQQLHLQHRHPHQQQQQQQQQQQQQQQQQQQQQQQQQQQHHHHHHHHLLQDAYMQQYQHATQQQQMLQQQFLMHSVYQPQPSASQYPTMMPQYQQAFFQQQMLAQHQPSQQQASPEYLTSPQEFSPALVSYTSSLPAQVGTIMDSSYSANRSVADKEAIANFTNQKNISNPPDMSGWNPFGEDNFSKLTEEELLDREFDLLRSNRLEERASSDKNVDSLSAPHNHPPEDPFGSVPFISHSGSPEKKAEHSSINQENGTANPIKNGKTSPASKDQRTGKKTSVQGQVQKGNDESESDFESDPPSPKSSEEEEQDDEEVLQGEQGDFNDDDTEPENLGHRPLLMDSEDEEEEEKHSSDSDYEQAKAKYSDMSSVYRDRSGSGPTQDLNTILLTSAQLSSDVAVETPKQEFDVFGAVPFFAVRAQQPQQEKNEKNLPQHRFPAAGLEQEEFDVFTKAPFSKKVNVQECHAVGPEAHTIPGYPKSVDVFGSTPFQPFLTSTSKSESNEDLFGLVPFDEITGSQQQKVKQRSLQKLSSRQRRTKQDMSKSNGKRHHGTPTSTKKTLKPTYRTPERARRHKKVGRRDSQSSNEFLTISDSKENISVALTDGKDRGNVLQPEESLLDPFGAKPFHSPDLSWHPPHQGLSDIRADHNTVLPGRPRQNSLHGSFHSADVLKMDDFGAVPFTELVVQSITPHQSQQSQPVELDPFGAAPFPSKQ

In the case of `Fc1ccc2ncnc(NCCc3ccc(Cl)cc3)c2c1` [5at, N-[2-(4-Chlorophenyl)Ethyl]-6-Fluoro-4-Quinazolinamine], the remaining activity at 10 µM in test [1] (setting [11]) was found to be 96%; in test [2] (setting [11]) it was 75%; in test [3] (setting [11]) it was 116%; in test [4] (setting [11]) it was 83%; in test [5] (setting [11]), 82%; in test [6] (setting [11]) it was 94%. Further, the remaining activity at 10 µM in [7] (setting [11]) was found to be 88%; in [8] (setting [11]), 77%; in test [9] (setting [11]), 92%; in [10] (setting [11]) it was 75%.

`COc1ccc2ncnc(Nc3cccc(F)c3)c2c1` [5ay, N-(3-Fluorophenyl)-6-Methoxy-4-Quinazolinamine]: the remaining activity at 10 µM in test [1] (setting [12]) is 74%; in [2] (setting [12]), 64%; in [3] (setting [12]) it was 86%; in test [4] (setting [12]) it was 78%; in test [5] (setting [12]), 109%; in test [6] (setting [12]) it was 71%. In addition, the remaining activity at 10 µM in test [7] (setting [12]) came to 67%; in test [8] (setting [12]) it was 93%; in [9] (setting [12]), 89%; in test [10] (setting [12]), 66%.

Turning to `Fc1ccc(CCNc2ncnc3ccc(F)cc23)cc1` [5as, 6-Fluoro-N-[2-(4-Fluorophenyl)Ethyl]-4-Quinazolinamine], the remaining activity at 10 µM in test [1] (setting [13]) was 91%; in [2] (setting [13]), 90%; in test [3] (setting [13]), 102%; in test [4] (setting [13]) it was 66%; in [5] (setting [13]) it was 91%; in test [6] (setting [13]), 98%. For the same compound, the remaining activity at 10 µM in test [7] (setting [13]) was 98%; in test [8] (setting [13]) it was 91%; in test [9] (setting [13]), 90%; in [10] (setting [13]), 61%.

As for `Fc1ccc(CNc2ncnc3ccc(F)cc23)cc1` [5aa, 6-Fluoro-N-(4-fluorobenzyl)-4-Quinazolinamine], the remaining activity at 10 µM turned out to be 83% in test [1] (setting [14]); 62% in [2] (setting [14]); 87% in test [3] (setting [14]); 95% in test [4] (setting [14]); 78% in test [5] (setting [14]); 100% in [6] (setting [14]). Also, the remaining activity at 10 µM was determined as 95% in test [7] (setting [14]), 81% in test [8] (setting [14]), 91% in test [9] (setting [14]) and 63% in test [10] (setting [14]).
